From patent publication US6492391B1, “Crystal modification d of 8-cyano-1-cyclopropyl-7-(1s, 6s- 2,8-diazabicyclo-[4.3.0]nonan-8-yl)-6-fluoro-1,4- dihydro-4-oxo-3-quinolinecarboxylic acid” (Bayer Aktiengesellschaft, priority 1999, dated 2002)

Experiments:
pathogenic bacteria = assay: activity against pathogenic bacteria; settings: human or veterinary medicine
Description: Its broad area of use corresponds to that of CCDC.

[1] = storage stability of the crystal modification; type: physicochemical; settings: prolonged storage; solid state
Description: For these reasons, it is highly suitable for preparing tablets or other solid formulations. Owing to its stability, it gives these formulations the desired long-lasting storage stability. Using the crystal modification D, it is therefore possible to prepare, in a defined and targeted manner, stable solid preparations of CCDC.

[2] = hygroscopicity of the solid; type: physicochemical; settings: powder obtained by the prior-art preparation process
Description: The partially amorphous powder which is obtained by the preparation process outlined above is furthermore hygroscopic. However, amorphous solids, and in particular hygroscopic solids, are difficult to handle when being processed pharmaceutically since, for example, they have low bulk densities and unsatisfactory flow properties. Moreover, the handling of hygroscopic solids requires special work techniques and apparatuses to obtain reproducible results, for example with respect to the active compound content or the stability of the solid formulations produced.

Compound	activity against pathogenic bacteria (pathogenic bacteria)	stability of the crystal modification on storage [1]	hygroscopicity [2]
N#Cc1c(N2C[C@@H]3CCCN[C@@H]3C2)c(F)cc2c(=O)c(C(=O)O)cn(C3CC3)c12 [CCDC of the crystal modification D, 8-cyano-1-cyclopropyl-7-(1S,6S-2,8-diazabicyclo[4.3.0]nonan-8-yl)-6-fluoro-1,4-dihydro-4-oxo-3-quinolinecarboxylic acid]	highly active	surprisingly stable and does not change into another crystal modification or the amorphous form, even on prolonged storage	
N#Cc1c(N2C[C@@H]3CCCN[C@@H]3C2)c(F)cc2c(=O)c(C(=O)O)cn(C3CC3)c12 [partially amorphous powder, 8-cyano-1-cyclopropyl-7-(1S,6S-2,8-diazabicyclo[4.3.0]nonan-8-yl)-6-fluoro-1,4-dihydro-4-oxo-3-quinolinecarboxylic acid]			hygroscopic
